In PMC8576102, “Structure–Activity Relationship of Novel Second-Generation Synthetic Cathinones: Mechanism of Action, Locomotion, Reward, and Immediate-Early Genes” (Frontiers in Pharmacology, 2021):

Experiments:
Swiss CD-1 mice = experiment: Horizontal locomotor activity (HLA); format: in vivo
SERT = system: T1, SERT; experiment: Batch release assay, [3H]5-HT release from SERT-expressing HEK293 cells; format: cell-based, human
T1 construct: YFP (yellow-fluorescent protein); expressed in transfected cells
Procedure: (§1) Human embryonic kidney (HEK293) cells stably expressing the yellow-fluorescent protein (YFP)-tagged version of the human isoforms of SERT (abbreviated as SERT) and DAT (abbreviated as DAT) were used for the uptake inhibition and release assays. The generation and maintenance of stable, monoclonal cell lines expressing these transporters was conducted as described by ([Mayer F. P. et al., 2016]; [Mayer et al., 2016 FP.]). HEK293 cells were maintained in DMEM supplemented with heat-inactivated 10% FBS, 100 µg/100 ml streptomycin, 100 U/ml penicillin, and Geneticin (G418; 50 μg/ml) and cultured in a humidified atmosphere (5% CO2, 37°C). The cells were seeded at a density of 0.36 million cells/well onto 96-well plates previously coated (24 h) with poly-D-lysine (PDL).
HEK293 cells expressing the transporter of interest were preloaded with the tritiated substrate 0.08 μM [^3H]5-HT (SERT) or 0.1 μM [^3H]MPP^+ (DAT) in KHB (50 μL/well) for 20 min (5% CO2, 37°C). Subsequently, the cells were washed three times using KHB (200 μL/well) at room temperature. Afterward, a pre-incubation step of 10 min in KHB or in KHB + monensin (Mon) 10 μM was done. […] To determine the specificity of drug-induced reverse transport, selective transporter inhibitors 0.05 μM paroxetine (SERT) and 0.5 μM of GBR12909 (DAT) and effective releasers 10 μM p-chloroamphetamine (PCA; SERT) and 10 μM d-amphetamine (DAT) were used (Supplementary Figure S1). The resulting supernatant was collected and transferred to a new well every 2 min (four times for KHB/Mon and five times for each tested compound). Three independent experiments were performed in duplicate. Liquid scintillation cocktail was added to the wells with remaining cells (200 μL) and with the transferred supernatant (100 μL) and to the wells used for total uptake and activity measurements (200 μL). Total radioactivity present in the supernatant and in the remaining cells was set as 100%, and the amount of [^3H] substrate present in the supernatant was expressed as percentage of the total.
(§2) Data were expressed as mean ± SEM. Competition curves were plotted and fitted by non-linear regression, and data were best fitted to a sigmoidal dose-response curve to obtain an IC50 value. 1/DAT IC50: 1/SERT IC50 was used to calculate transporter ratios. Data from batch release assays were statistically analyzed with a mixed-effects model, employing Šidák’s correction for multiple comparisons. One-way/two-way ANOVA or two-way ANOVA of repeated measures, followed by Tukey’s or Dunnett’s post hoc test, was also used when appropriate. The α error probability was set at 0.05 (p < 0.05). The size group for each experiment and statistical results are shown in the corresponding legend of figures. Statistical calculations were performed using GraphPad Prism (GraphPad Software, San Diego, CA, United States).

hSERT = target: T2, hSERT (Homo sapiens, UniProt P31645); experiment: Uptake inhibition assay, [3H]5-HT uptake in transfected HEK293 cells; format: cell-based
T2 construct: YFP (yellow-fluorescent protein); expressed in transfected cells
T2 sequence (P31645 whole entry): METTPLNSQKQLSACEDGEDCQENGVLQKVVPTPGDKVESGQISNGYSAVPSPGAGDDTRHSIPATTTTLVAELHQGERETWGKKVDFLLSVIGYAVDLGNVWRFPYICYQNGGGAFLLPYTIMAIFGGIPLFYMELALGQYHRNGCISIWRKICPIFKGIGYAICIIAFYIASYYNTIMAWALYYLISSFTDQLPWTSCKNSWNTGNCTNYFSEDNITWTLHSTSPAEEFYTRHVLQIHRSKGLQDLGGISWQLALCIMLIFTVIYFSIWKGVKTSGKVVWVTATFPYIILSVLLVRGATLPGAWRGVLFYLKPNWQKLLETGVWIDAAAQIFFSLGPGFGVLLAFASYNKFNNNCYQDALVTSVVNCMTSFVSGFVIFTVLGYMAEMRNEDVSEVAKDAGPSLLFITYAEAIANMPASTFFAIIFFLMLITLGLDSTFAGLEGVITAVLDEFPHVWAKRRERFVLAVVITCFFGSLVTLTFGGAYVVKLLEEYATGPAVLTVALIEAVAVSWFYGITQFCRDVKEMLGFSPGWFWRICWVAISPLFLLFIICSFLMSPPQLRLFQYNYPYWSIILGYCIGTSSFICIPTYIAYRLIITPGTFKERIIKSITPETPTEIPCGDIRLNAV
Procedure: as §1
The medium was removed and immediately replaced with 200 µL/well of Krebs-HEPES buffer (KHB; 10 mM HEPES, 120 mM NaCl, 3 mM KCl, 2 mM CaCl2·2H2O, 2 mM MgCl2·6H2O, 20 mM D-glucose; pH 7.3). The cells were pre-incubated with different concentrations of the drug in KHB at a final volume of 50 µL/well for 5 min (DAT, SERT). Immediately after, the pre-incubation solution was removed and the cells were incubated with the tritiated substrates, 0.02 µM [^3H]MPP^+ for the DAT (3 min) and 0.1 µM [^3H]5-HT for the SERT (1 min), along with different concentrations of the drug in KHB. Finally, the [^3H]substrate was removed and the cells were washed with ice-cold KHB followed by the addition of sodium dodecyl sulfate (SDS) 1%. The lysate was then added to the scintillation fluid, and the radioactivity was quantified with a beta-scintillation counter (Perkin Elmer, Waltham, MA, United States).
The uptake in the absence of the drug compound was normalized to 100%, being the percentage of the uptake in the presence of different concentrations of the drug expressed as a percentage thereof. 3–4 independent experiments were performed in duplicate.
as §2

bdnf mRNA = bdnf mRNA expression (qPCR) in medial prefrontal cortex; format: in vivo, mice; conditions: 10 mg/kg i.p., 120 min after administration, vs saline
Procedure: Mice were injected with an acute dose of 10 mg/kg i.p. of the corresponding synthetic cathinone or saline solution. The dose was chosen according to the behavioral results obtained since it caused significant response in both CPP and HLA tests in all compounds tested. 30 min or 2 h post-administration, mice were sacrificed by cervical dislocation and the VS, DS, and mPFC were dissected out ([Paxinos and Franklin, 2004]) using a mouse brain acrylic matrix (Agnthos, Sweden) and stored at -80°C until use. Total RNA was isolated following a standard TRIsure reagent–chloroform extraction protocol ([Duart-Castells et al., 2019]).
Reverse transcription polymerase chain reaction (RT-PCR) was carried out to obtain complementary DNA (cDNA) by using the High Capacity cDNA Reverse Transcription Kit (Applied Biosystems) and the Veriti thermal cycler (Applied Biosystems, Foster, CA, United States). Synthesis of cDNA was obtained by mixing 1,000 ng of total RNA with the corresponding volumes of each kit reagent to a final volume of 20 μL. Quantitative real-time polymerase chain reaction (qPCR) was performed by using the StepOnePlus^TM Real-Time PCR System and TaqMan PCR Master Mix (Applied Biosystems, Foster, CA, United States). […]

In the case of `CCCC(NCC)C(=O)c1ccc2c(c1)OCO2` (stereo not drawn) [N-Ethyl-pentylone, 3’,4’-methylendioxy-α-ethylaminovalerophenone], the “HLA vs saline at the lowest dose” value (Swiss CD-1 mice; 3 mg/kg i.p., 60 min) is reported as “increase”, the “Persistence of the increase in locomotor activity” value (Swiss CD-1 mice; 10 mg/kg i.p.) is reported as “more than 1 hour” and the “HLA after 30 mg/kg compared to the medium dose (10 mg/kg)” value (Swiss CD-1 mice; 30 mg/kg vs 10 mg/kg i.p.) is reported as “significant decrease”. For the same compound, the “[3H]5-HT release at SERT-expressing HEK293 cells, max.” value (SERT; compound close to its IC50 (NEP 6 µM)) was “≈ 5 % total cpm”, the “[3H]5-HT release at the SERT (in words)” value (SERT; compound close to its IC50, KHB vs KHB + monensin 10 µM) was “smallest” and the IC50 (hSERT) was 6.37 ± 0.09 µM. For the same compound, the “bdnf mRNA levels in the mPFC, 120 min” value (bdnf mRNA) was “significant overexpression”.
